Measured values published in ChEMBL document CHEMBL1201862, “PubChem BioAssay data set” (2004).
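Each compound was tested at five concentrations against cells in 96-well plates for 48 hours. At the GI50, growth is halved.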 The source made the active and inactive calls. No stated cut-off is given here; in the data, active = GI50 up to about 1.1 µM and inactive = higher.

Assays:
Assay in all cases: inhibition of tumour cell growth, NCI panel, 48 h
[1] = system: HL-60
[2] = system: SK-MEL-2
[3] = system: HOP-92
[4] = system: DU-145
[5] = system: SF-295
[6] = system: NCI-H460
[7] = system: LOX IMVI
[8] = system: T47D
[9] = system: EKVX
[10] = system: MOLT-4
[11] = system: RXF 393
[12] = system: A549
[13] = system: MDA-MB-435
[14] = system: SN12C
[15] = system: UACC-62
[16] = system: TK-10
[17] = system: HCT-15
[18] = system: OVCAR-5
[19] = system: HT-29
[20] = system: CCRF-CEM

Structure (SMILES)	GI50 [1]	GI50 [2]	GI50 [3]	GI50 [4]	GI50 [5]	GI50 [6]	GI50 [7]	GI50 [8]	GI50 [9]	GI50 [10]	GI50 [11]	GI50 [12]	GI50 [13]	GI50 [14]	GI50 [15]	GI50 [16]	GI50 [17]	GI50 [18]	GI50 [19]	GI50 [20]
CCOC(=O)CCc1ccc(NC(=O)/C=C/c2ccc([N+](=O)[O-])o2)cc1	0.166 µM (active)	2.06 µM (inactive)	4.04 µM (inactive)	2.1 µM (inactive)	3.48 µM (inactive)	2.34 µM (inactive)	0.356 µM (active)	3.24 µM (inactive)	> 100 µM (inactive)	0.22 µM (active)	0.794 µM (active)	3.72 µM (inactive)	0.316 µM (active)	1.43 µM (inactive)	2.12 µM (inactive)	1.48 µM (inactive)	1.77 µM	2.34 µM (inactive)	0.925 µM (active)	0.177 µM (active)
C=C1[C@@H](O)C[C@@]23CC[C@@H]4[C@@]5(C)CC[C@@H](OC(C)=O)C(C)(C)[C@@H]5C[C@@H](OC5OC(COC(C)=O)C(O)C(O)C5O)[C@@]4(C)C2=CC[C@H]3[C@H]1C (stereo not given in full)	2.27 µM (inactive)	2.34 µM (inactive)	7.38 µM (inactive)	10.5 µM (inactive)	4.06 µM (inactive)	4.13 µM (inactive)	3.01 µM (inactive)	5.09 µM (inactive)	10.2 µM (inactive)	2.5 µM (inactive)	4.27 µM (inactive)	4.49 µM (inactive)	4.51 µM (inactive)	7.98 µM (inactive)	6.07 µM (inactive)	8.41 µM (inactive)	12.4 µM	2.22 µM (inactive)	2.1 µM (inactive)	2.97 µM (inactive)
CCC(=O)N/S(=N/S(=O)(=O)c1ccccc1)C(Cl)(Cl)Cl (stereo not given)	> 100 µM (inactive)	> 100 µM (inactive)	> 100 µM (inactive)	> 100 µM (inactive)	> 100 µM (inactive)	> 100 µM (inactive)	> 100 µM (inactive)	> 100 µM (inactive)	> 100 µM (inactive)	> 100 µM (inactive)	> 100 µM (inactive)	> 100 µM (inactive)	> 100 µM (inactive)	> 100 µM (inactive)	> 100 µM (inactive)	> 100 µM (inactive)	> 100 µM	> 100 µM (inactive)	> 100 µM (inactive)	> 100 µM (inactive)
O=C1c2cccnc2-c2nccc3c2c1nc1cc(Br)ccc13	0.0405 µM (active)	0.165 µM (active)	0.438 µM (active)	0.121 µM (active)	0.227 µM (active)	0.138 µM (active)	0.0533 µM (active)	0.0883 µM (active)	1.15 µM (inactive)	0.0955 µM (active)	0.0946 µM (active)	0.122 µM (active)	0.198 µM (active)	0.101 µM (active)	0.178 µM (active)	0.979 µM (active)	0.0721 µM	0.24 µM (active)	0.989 µM (active)	0.0989 µM (active)
Cc1nc2ccccc2n1Cc1nnc(N)o1	> 100 µM (inactive)	> 100 µM (inactive)	> 100 µM (inactive)	> 100 µM (inactive)	> 100 µM (inactive)	> 100 µM (inactive)	> 100 µM (inactive)	> 100 µM (inactive)	> 100 µM (inactive)	> 100 µM (inactive)	> 100 µM (inactive)	53.3 µM (inactive)	0.1 µM (active)	> 100 µM (inactive)	> 100 µM (inactive)	> 100 µM (inactive)	> 100 µM	> 100 µM (inactive)	> 100 µM (inactive)	> 100 µM (inactive)
